From US20240270762A1, “PENICILLIN-BINDING PROTEIN INHIBITORS” (priority 2021, published 2024)
pIC50: −log10 of the molar value. In brackets after ≈: the same amount, converted by molar mass. Read-outs that look alike come from different tables or passages of the source.

Tests used:
A. baumannii CDC-0083 = assay: microbe, parasite or virus in culture; assay type: cell-based; details: Acinetobacter baumannii, CDC0083, read-out: MIC, A. baumannii CDC-0083
A. baumannii ATCC 19606 = assay: microbe, parasite or virus in culture; assay type: cell-based; details: Acinetobacter baumannii, ATCC19606, read-out: MIC, A. baumannii ATCC 19606
N. gonorrhoeae CDC-0197 = assay: Liquid broth MIC in Fastidious broth; details: Neisseria gonorrhoeae
N. gonorrhoeae WHO M = assay: Liquid broth MIC in Fastidious broth; details: Neisseria gonorrhoeae
A. baumannii CDC-0033 = assay: microbe, parasite or virus in culture; assay type: cell-based; details: Acinetobacter baumannii, CDC0033, read-out: MIC, A. baumannii CDC-0033
A. baumannii 1258916 = assay: microbe, parasite or virus in culture; assay type: cell-based, Acinetobacter baumannii; details: Acinetobacter baumannii, 1258916, read-out: MIC, A. baumannii 1258916
N. gonorrhoeae WHO X = assay: Liquid broth MIC in Fastidious broth; details: Neisseria gonorrhoeae
[1] = target: T1, PBP1a from Acinetobacter baumannii (ATCC 19606) (Acinetobacter baumannii, UniProt A0ABX6CK30); assay: Bocillin-FL fluorescence polarization competition binding, A. baumannii PBP1a; details: fluorescence polarization competition binding assay using Bocillin-FL; read-out: A. baumannii PBP1a Potency
T1 sequence (A0ABX6CK30 1-851): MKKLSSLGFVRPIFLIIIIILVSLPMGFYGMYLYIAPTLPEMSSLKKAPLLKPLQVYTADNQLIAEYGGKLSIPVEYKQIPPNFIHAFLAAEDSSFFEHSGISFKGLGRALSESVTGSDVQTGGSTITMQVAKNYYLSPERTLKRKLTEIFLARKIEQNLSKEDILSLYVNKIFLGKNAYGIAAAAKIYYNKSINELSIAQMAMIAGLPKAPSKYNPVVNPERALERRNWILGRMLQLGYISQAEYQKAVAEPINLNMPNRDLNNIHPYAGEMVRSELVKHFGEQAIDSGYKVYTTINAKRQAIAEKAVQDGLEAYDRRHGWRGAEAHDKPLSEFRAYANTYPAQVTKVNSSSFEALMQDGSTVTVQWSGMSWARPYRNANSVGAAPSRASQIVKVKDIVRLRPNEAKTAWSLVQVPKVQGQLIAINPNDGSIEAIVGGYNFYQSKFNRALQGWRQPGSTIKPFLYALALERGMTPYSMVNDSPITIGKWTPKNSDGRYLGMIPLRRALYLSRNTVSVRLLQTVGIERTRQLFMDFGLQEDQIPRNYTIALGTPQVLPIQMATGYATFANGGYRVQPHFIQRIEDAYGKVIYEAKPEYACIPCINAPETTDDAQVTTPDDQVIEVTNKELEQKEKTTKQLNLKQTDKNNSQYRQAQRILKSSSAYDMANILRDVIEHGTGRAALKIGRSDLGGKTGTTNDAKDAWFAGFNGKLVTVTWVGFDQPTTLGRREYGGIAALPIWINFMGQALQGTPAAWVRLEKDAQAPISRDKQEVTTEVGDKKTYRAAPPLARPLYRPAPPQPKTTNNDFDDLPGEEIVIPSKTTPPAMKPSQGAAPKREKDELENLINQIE
How it was run: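 Purified PBPs pre-incubated with inhibitor (E. coli PBP3 1.5 μM, 30 min; P. aeruginosa PBP3 0.75 μM, A. baumannii PBP1a 1 μM and PBP3 0.2 μM, 15 min), then Bocillin-FL 0.1 μM (0.05 μM for PBP1a) added; FP read up to 60 min. EC50 = concentration halving bound Bocillin-FL.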

[2] = CDC0197, read-out: Minimum Inhibitory Concentration, CDC-0197
[3] = read-out: Minimum Inhibitory Concentration, WHO M
[4] = read-out: Minimum Inhibitory Concentration, WHO X
[5] = CDC0197, read-out: Minimum Inhibitory Concentration (MIC), N. gonorrhoeae CDC-0197
[6] = read-out: Minimum Inhibitory Concentration (MIC), N. gonorrhoeae WHO M
[7] = read-out: Minimum Inhibitory Concentration (MIC), N. gonorrhoeae WHO X

SMILES | MIC (A. baumannii CDC-0083) [µg/mL] | MIC (A. baumannii ATCC 19606) [µg/mL] | MIC (N. gonorrhoeae CDC-0197; [2]) [µg/mL] | MIC (N. gonorrhoeae WHO M; [3]) [µg/mL] | MIC (A. baumannii CDC-0033) [µg/mL] | MIC (A. baumannii 1258916) [µg/mL] | MIC (N. gonorrhoeae WHO X; [4]) [µg/mL] | pIC50 [1] | MIC (N. gonorrhoeae CDC-0197; [5]) [µg/mL] | MIC (N. gonorrhoeae WHO M; [6]) [µg/mL] | MIC (N. gonorrhoeae WHO X; [7]) [µg/mL]
O=C(NCCCS(=O)(=O)N1CCN(C(=O)NC(C(=O)N[C@H]2Cc3ccc(F)c(C(=O)O)c3OB2O)c2cc(F)c(O)c(O)c2Cl)C1=O)c1ccccc1 (stereo partly drawn) [Example 268, (3R)-3-(2-(3-((3-benzamidopropyl)sulfonyl)-2-oxoimidazolidine-1-carboxamido)-2-(2-chloro-5-fluoro-3,4-dihydroxyphenyl)acetamido)-7-fluoro-2-hydroxy-3,4-dihydro-2H-benzo[e][1,2]oxaborinine-8-carboxylic acid] | 2 to 4 (≈ 2.56 to 5.13 µM) | < 1 | 16 to 32 (≈ 20.5 to 41 µM) | 16 to 32 (≈ 20.5 to 41 µM) | 8 to 16 (≈ 10.3 to 20.5 µM) | < 1 | > 64 | < 3.60 | – | – | –
O=C(NCCCS(=O)(=O)N1CCN(C(=O)N[C@@H](C(=O)N[C@H]2Cc3ccc(F)c(C(=O)O)c3OB2O)c2cc(F)c(O)c(O)c2Cl)C1=O)c1cccc(O)c1 [Example 271, (R)-3-((R)-2-(2-chloro-5-fluoro-3,4-dihydroxyphenyl)-2-(3-((3-(3-hydroxybenzamido)propyl)sulfonyl)-2-oxoimidazolidine-1-carboxamido)acetamido)-7-fluoro-2-hydroxy-3,4-dihydro-2H-benzo[e][1,2]oxaborinine-8-carboxylic acid] | < 1 | < 1 | 16 to 32 (≈ 20.1 to 40.2 µM) | 4 to 8 (≈ 5.03 to 10.1 µM) | 2 to 4 (≈ 2.51 to 5.03 µM) | < 1 | > 64 | < 3.60 | – | – | –
O=C(NCCCS(=O)(=O)N1CCN(C(=O)NC(C(=O)N[C@H]2Cc3ccc(F)c(C(=O)O)c3OB2O)c2cc(F)c(O)c(O)c2Cl)C1=O)c1ccncc1 (stereo partly drawn) [Example 272, (3R)-3-(2-(2-chloro-5-fluoro-3,4-dihydroxyphenyl)-2-(3-((3-(isonicotinamido)propyl)sulfonyl)-2-oxoimidazolidine-1-carboxamido)acetamido)-7-fluoro-2-hydroxy-3,4-dihydro-2H-benzo[e][1,2]oxaborinine-8-carboxylic acid] | < 1 | < 1 | 16 to 32 (≈ 20.5 to 41 µM) | 16 to 32 (≈ 20.5 to 41 µM) | 8 to 16 (≈ 10.2 to 20.5 µM) | 2 to 4 (≈ 2.56 to 5.12 µM) | > 64 | < 3.60 | – | – | –
O=C(CN1CCN(C(=O)NC(C(=O)N[C@H]2Cc3ccc(F)c(C(=O)O)c3OB2O)c2cc(F)c(O)c(O)c2Cl)C(=O)C1=O)Nc1cccc(O)c1 (stereo partly drawn) [Example 231, (3R)-3-(2-(2-chloro-5-fluoro-3,4-dihydroxyphenyl)-2-(4-(2-((3-hydroxyphenyl)amino)-2-oxoethyl)-2,3-dioxopiperazine-1-carboxamido)acetamido)-7-fluoro-2-hydroxy-3,4-dihydro-2H-benzo[e][1,2]oxaborinine-8-carboxylic acid] | > 128 | < 1 | – | – | 8 to 16 (≈ 10.9 to 21.9 µM) | 2 to 4 (≈ 2.73 to 5.47 µM) | – | < 3.60 | 16 to 32 (≈ 21.9 to 43.7 µM) | 4 to 8 (≈ 5.47 to 10.9 µM) | > 64
O=C(CN1CCN(C(=O)NC(C(=O)N[C@H]2Cc3ccc(F)c(C(=O)O)c3OB2O)c2cc(F)c(O)c(O)c2Cl)C(=O)C1=O)Nc1ccc(O)cc1 (stereo partly drawn) [Example 230, (3R)-3-(2-(2-chloro-5-fluoro-3,4-dihydroxyphenyl)-2-(4-(2-((4-hydroxyphenyl)amino)-2-oxoethyl)-2,3-dioxopiperazine-1-carboxamido)acetamido)-7-fluoro-2-hydroxy-3,4-dihydro-2H-benzo[e][1,2]oxaborinine-8-carboxylic acid] | < 1 | < 1 | – | – | 2 to 4 (≈ 2.73 to 5.47 µM) | 2 to 4 (≈ 2.73 to 5.47 µM) | – | < 3.60 | 16 to 32 (≈ 21.9 to 43.7 µM) | 4 to 8 (≈ 5.47 to 10.9 µM) | > 64
O=C(NCCCN1CCN(C(=O)NC(C(=O)N[C@H]2Cc3ccc(F)c(C(=O)O)c3OB2O)c2cc(F)c(O)c(O)c2Cl)C(=O)C1=O)c1ccc(O)cc1 (stereo partly drawn) [Example 203, (3R)-3-(2-(2-chloro-5-fluoro-3,4-dihydroxyphenyl)-2-(4-(3-(4-hydroxybenzamido)propyl)-2,3-dioxopiperazine-1-carboxamido)acetamido)-7-fluoro-2-hydroxy-3,4-dihydro-2H-benzo[e][1,2]oxaborinine-8-carboxylic acid] | < 1 | < 1 | – | – | 2 to 4 (≈ 2.63 to 5.26 µM) | < 1 | – | < 3.60 | 16 to 32 (≈ 21.1 to 42.1 µM) | 4 to 8 (≈ 5.26 to 10.5 µM) | > 64
O=C(CN1CCN(C(=O)NC(C(=O)N[C@H]2Cc3ccc(F)c(C(=O)O)c3OB2O)c2cc(F)c(O)c(O)c2Cl)C(=O)C1=O)Nc1cccnc1 (stereo partly drawn) [Example 234, (3R)-3-(2-(2-chloro-5-fluoro-3,4-dihydroxyphenyl)-2-(2,3-dioxo-4-(2-oxo-2-(pyridin-3-ylamino)ethyl)piperazine-1-carboxamido)acetamido)-7-fluoro-2-hydroxy-3,4-dihydro-2H-benzo[e][1,2]oxaborinine-8-carboxylic acid] | < 1 | < 1 | – | – | 8 to 16 (≈ 11.2 to 22.3 µM) | < 1 | – | < 3.60 | 16 to 32 (≈ 22.3 to 44.6 µM) | 4 to 8 (≈ 5.58 to 11.2 µM) | > 64
O=C(CN1CCN(C(=O)NC(C(=O)N[C@H]2Cc3ccc(F)c(C(=O)O)c3OB2O)c2cc(F)c(O)c(O)c2Cl)C(=O)C1=O)NCc1ccccc1 (stereo partly drawn) [Example 238] | > 128 | < 1 | – | – | 8 to 16 (≈ 11 to 21.9 µM) | 2 to 4 (≈ 2.74 to 5.48 µM) | – | < 3.60 | 16 to 32 (≈ 21.9 to 43.8 µM) | 4 to 8 (≈ 5.48 to 11 µM) | > 64
CN(CCN1CCN(C(=O)N[C@@H](C(=O)N[C@H]2Cc3ccc(F)c(C(=O)O)c3OB2O)c2cc(F)c(O)c(O)c2Cl)C(=O)C1=O)Cc1ccc(N)nc1 [Example 209, (R)-3-((R)-2-(4-(2-(((6-aminopyridin-3-yl)methyl)(methyl)amino)ethyl)-2,3-dioxopiperazine-1-carboxamido)-2-(2-chloro-5-fluoro-3,4-dihydroxyphenyl)acetamido)-7-fluoro-2-hydroxy-3,4-dihydro-2H-benzo[e][1,2]oxaborinine-8-carboxylic acid] | < 1 | < 1 | – | – | 2 to 4 (≈ 2.68 to 5.36 µM) | < 1 | – | < 3.60 | 16 to 32 (≈ 21.5 to 42.9 µM) | 4 to 8 (≈ 5.36 to 10.7 µM) | > 64
